Measurements published in patent US11325937B2, “Glycoside compound and preparation method therefor, composition, application, and intermediate” (SHANGHAI HUTCHISON PHARMACEUTICALS LIMITED, priority 2018, dated 2022).
Read-outs that look alike come from different tables or passages of the source.

Tests used:
[1] = test system: VEGF-A mRNA expression in macrophages (RAW264.7); test: In vitro macrophage experiment: activity of compounds to promote VEGF-A mRNA expression (RT-qPCR); format: cell-based; conditions: Mus musculus, read-out: Expression level of VEGF-A mRNA
Excerpt: 1.1. Specific steps for activity screening: 1-10×10^6 macrophages (RAW264.7) in logarithmic growth phase were transferred to a cell culture plate. The test compounds (Compounds TG-001, TG-002, TG-003, TG-004, TG-005, TG-006, TG-007, TG-008, TG-009, TG-010, TG-011, TG-012, TG-013, TG-014, TG-015, TG-016, TG-017, TG-018, TG-019, TG-020, TG-021, TG-022, TG-023, TG-024, TG-025, TG-026, TG-027, TG-028, TG-029, TG-030, TG-031, TG-032, TG-033, TG-034, TG-035, TG-036, TG-037, TG-045, TG-039, TG-040 TG-041, TG-042, TG-043, TG-044, TG-045, TG-052, TG-053, TG-054, TG-047, TG-048, TG-046, TG-049, TG-050, TG-051, TG-055 and TG-056) were respectively diluted into various concentrations, and separately added to the cell culture plate containing macrophage. The cells were cultured for 3 h in a complete medium (RPMI 1640 medium:fetal bovine serum:tri-resistance screening agent (i.e. penicillin-streptomycin-gentamicin, Beijing Leagene Biotechnology Co., Ltd.)=89:10:1 based on volume) in a cell incubator at 37° C. and 5% CO2. The cells were lyzed by Trizol (Beijing ComWin Biotech Co., Ltd) to extract RNA, and the RNA concentration was measured using a microvolume nucleic acid and protein analyzer (Nanodrop2000c). The required volume V of RNA was calculated according to the RNA concentration, and the RNA reverse transcription reaction system was prepared according to Table 1. Then RNA reverse transcription (cDNA synthesis) (RT Easy™ I (For first-strand cDNA synthesis) Reverse Transcription Kit, Chengdu ForeGene Biotechnology Co., Ltd.) was carried out according to the conditions described in Table 2. The resulting cDNA was used to prepare a fluorescence quantitative PCR reaction solution according to Table 3. The fluorescence quantitative PCR reaction conditions were set according to Table 4, and the fluorescence quantitative PCR reaction (Real time PCR Easy™-SYBR Green Fluorescence Quantification Kit, Chengdu ForeGene Biotechnology Co., Ltd.) was performed using cDNA from the reverse transcription reaction as a template. The relative expression level 2^−ΔΔCt of the target gene was calculated from the Ct value of each sample with the blank control group as a control and β-Actin as an internal reference.
Based on the maximum level of VEGF-A mRNA expression promoted by a drug at a certain concentration, the activity of the drug was determined. The expression level of VEGF-A mRNA in macrophages was defined as 1 when no drug was added. Using a traditional Chinese medicine injection Salvianolate that is used in the treatment of Cardio-cerebrovascular disease and promotes a maximum level of VEGF-A mRNA expression of 6 in macrophages (the results are shown in Table 5) as a judgment standard, the compound promoting a maximum level of VEGF-A mRNA expression of 4 or more in macrophage was a target compound. That is, when the maximum level of VEGF-A mRNA expression in macrophages promoted by the test compound is over 4-fold higher than the expression level of VEGF-A mRNA in macrophages without the addition of the test compound, the test compound was a preliminary target compound promoting angiogenesis.

VEGF-A mRNA = test: Sponge implanted animal model of inflammatory angiogenesis: VEGF-A mRNA expression; format: in vivo, male C57/BL6 mice; conditions: positive control Salvianolate 60 mg/kg/d; sponge implanted mice, 2 weeks
Excerpt: The target pro-angiogenic compounds TG-052, TG-053, TG-054, TG-028, and TG-055 obtained in Effect Example 1 that perform well at the cellular level were further screened for the active molecules that promote VEGF-A mRNA expression in the “sponge implanted animal model” of inflammatory angiogenesis. […] This model can well reflect the expression of VEGF-A mRNA in macrophages recruited around inflammation.
A sponge implanted mouse model was established following the method as described in Zhang J, Modi Y, and Yarovinsky T, et al. Macrophage β2 integrin-mediated, HuR-dependent stabilization of angiogenic factor-encoding mRNAs in inflammatory angiogenesis. [J]. American Journal of Pathology, 2012. 180(4): 1751-1760. The mice used in the present invention was male C57/BL6 mice aged 6-8 weeks and weighing 20-25 g, purchased from Shanghai SLAC Laboratory Animal Co., Ltd, Production License No: SCXK (Shanghai) 2013-0016. The compound screened in Effect Example 1 was weighed according to the amount intended to be used in two weeks, and then mixed with a gel matrix and a solvent to prepare a sustained-release gel of the compound (see Patent Application No.: CN201610168493.9 for the details of the preparation method of the sustained-release gel and the model establishment and detection methods). The specific steps were as follows. A certain amount of the compound obtained in Effect Example 1 was weighed into a 1.5 mL EP tube, and then a certain amount of poly-L-lactic acid (PLLA) with a weight average molecular weight of less than 10,000 was weighed and mixed with the compound (at a weight ratio of the compound to PLLA of 0.5:1 to 2:1). Finally a certain amount of DMSO (less than 100 microliters) was added, spun, mixed well, and then sealed with a sealing film. After continuous ultrasonication at 200 W and 25° C. for 5 h, a sustained-release gel of the compound was obtained, which was stored at 4° C. for later use.
The prepared sustained-release gel can release the drug completely within 2 weeks. The sustained-release gel and sponge were both subcutaneously implanted in the mice at the back. After 2 weeks, the sponge was taken out, and the residual tissue and fur were removed. The sponge was transferred to a cell culture plate containing 10 mL of DMEM medium containing collagenase (Collagenase:DMEM=10 mg/10 mL), cut, and incubated for 1 h in a cell incubator. Then the culture medium containing sponge debris was filtered, and the resulting filtrate was centrifuged. The supernatant was discarded, and 500 μL of Trizol reagent was added to the pellet, and mixed uniformly by blowing. Then the liquid was transferred to a 1.5 mL EP tube, and stored at −80° C. RNA was extracted according to a conventional method, and the RNA concentration was determined using a microvolume nucleic acid and protein analyzer (Nanodrop2000c). The required volume V of RNA was calculated according to the RNA concentration, and the RNA reverse transcription reaction system was prepared according to Table 1. Then RNA reverse transcription (cDNA synthesis) was carried out according to the conditions described in Table 2. The resulting cDNA was used to prepare a fluorescence quantitative qPCR reaction solution according to Table 3. The fluorescence quantitative qPCR reaction conditions were set according to Table 4, and the fluorescence quantitative PCR reaction was performed using cDNA from the reverse transcription reaction as a template. The relative expression level 2^−ΔΔCt of the target gene was calculated from the Ct value of each sample with the blank group as a control and β-Actin as an internal reference. The expression level of VEGF-A mRNA in the cells extracted from the sponge was observed after 2 weeks. […]

[2] = test system: rats with middle cerebral artery occlusion (MCAO); test: Acute cerebral infarction model in rats with middle cerebral artery occlusion (MCAO); format: in vivo, male SD rats; conditions: MCAO
Excerpt: After obtaining the active molecules that can promote the expression of VEGF-A mRNA in the animal model of inflammatory angiogenesis, a rat model of cerebral infarction was used for further verification. Following the method as described in Longa, E. Z., Longa, E. Z., Weinstein, P. R., Carlson, S. & Commin, R. Reversible middle cerebral artery occlusion without craniectomy in rats. [J]. Stroke, 1989. 1: 84-91, an acute cerebral infarction model was established in rats with middle cerebral artery occlusion (MCAO); and following the method as described in C. dela Torre, T. Fortin, G. A. S. Park, K. S. Butler, P. Kozlowski, B. A. Pappas, H. de Socarraz, J. K. Saunders and M. T. Richard. [J]. Brain Research, 1992. 582:186-195, a chronic cerebral ischemia model was established in rats with permanent ligation of bilateral common carotid arteries (2VO). The inhibition on cerebral infarction and neuroprotection for brain injury of the active molecules screened in Effect Example 2 were verified.
The control drugs were: Edaravone (purchased from Zhejiang Shengtong Biotechnology Co., Ltd.), Clopidogrel bisulfate (purchased from Wuhan Yuancheng Gongchuang Technology Co., Ltd.), and Salvianolate (purchased from Henan Provincial People's Hospital). Clopidogrel bisulfate is a platelet aggregation inhibitor, and Edaravone is a brain protectant (free radical scavenger). The MCAO model of rats was made by the thread occlusion method. The rats used in this effect example were male SD rats weighing 280-320 grams, purchased from Shanghai SLAC Laboratory Animal Co., Ltd. Five SD (Sprague Dawley) rats in each group were administered by intraperitoneal injection, 2 h before surgery, and every 24 h after modeling.
Three days later, the brain was taken, and the rat brain was stained with TTC (2,3,5-triphenyltetrazolium chloride, to detect the cell viability) and then photographed. Infarction rate (%)=(Non-infarction area of right brain section−non-infarction area of left brain section)/total area of brain section*100%. According to t tests, *P<0.05, **P<0.01, ***P<0.001 compared with the model group (MCAO). Infarction inhibition rate (%) at different doses=(infarction rate of model group-infarction rate of treatment group)/infarction rate of model group*100%. The infarction inhibition rate at different doses was plotted, and the ED50 of the drug was calculated.
Moreover, the body weight of the rats was recorded. The rate of body weight change was calculated according to a formula: Rate of body weight change (%)=(final weight-initial weight)/[…].
Three days after the acute cerebral infarction model was established in rats with MCAO, the test rats were scored for neurological function according to the Longa nerve scoring standard.
Three days after the acute cerebral infarction model of MCAO was established in rats, the intact brain tissue was taken out, olfactory bulb and the brain tissue that is 4 mm in front of the frontal pole was removed, and the immediately adjacent brain tissue of 2 mm thick was taken for water content measurement in the brain. The water content in brain tissue is calculated by the formula: (WW−DW)/WW×100%, where WW is the wet weight and DW is the dry weight. Three days after the acute cerebral infarction model of MCAO was established in rats, the brain tissue was stained with Evans Blue (EB, a commonly used azo dye preparation) to evaluate the permeability across the blood-brain barrier (BBB), so as to evaluate the integrity of blood-brain barrier. Both experiments were tested with the optimal dose of each drug previously determined: TG-028 (5 mg/Kg), Salvianolate (20 mg/Kg), Clopidogrel bisulfate (40 mg/Kg), Edaravone (40 mg/Kg).

[3] = 0.5 mM, RAW264.7 macrophages, 3 h, relative expression, no drug = 1
[4] = 1 mM, RAW264.7 macrophages, 3 h, relative expression, no drug = 1
[5] = 2 mM, RAW264.7 macrophages, 3 h, relative expression, no drug = 1
[6] = 3 mM, RAW264.7 macrophages, 3 h, relative expression, no drug = 1
[7] = 1 μM, RAW264.7 macrophages, 3 h, relative expression 2^-ΔΔCt, no drug = 1
[8] = 0.1 mM, RAW264.7 macrophages, 3 h, relative expression, no drug = 1

SMILES	fold induction at 500 µM [1, 3]	fold induction at 1000 µM [1, 4]	fold induction at 2000 µM [1, 5]	fold induction at 3000 µM [1, 6]	fold induction at 1 µM [1, 7]	fold induction at 100 µM [1, 8]	further results
COc1ccc(CCCO[C@@H]2O[C@H](CO)[C@@H](O)[C@H](O)[C@H]2O)cc1 [TG-054]	3.63	12.4	6.5	1.21			fold induction at 4000 µM ([1]; 4 mM, RAW264.7 macrophages, 3 h, relative expression, no drug = 1): 2.01; activity in promoting VEGF-A mRNA expression compared with Salvianolate (in words) (VEGF-A mRNA): slightly lower activity in promoting the VEGF-A mRNA expression
COc1cc(CCCCO[C@@H]2O[C@H](CO)[C@@H](O)[C@H](O)[C@H]2O)ccc1O [TG-057]							Longa nerve scoring, protective effect on nerves (in words) ([2]; 5 mg/kg, FIG. 20): has a protective effect on nerves in rats after brain injury, but the effect is not as strong as that of TG-028; effect of inhibiting cerebral infarction (in words) ([2]; 5 mg/kg, FIG. 20): has the effect of inhibiting cerebral infarction in the rats
COc1ccc(CCS[C@@H]2O[C@H](CO)[C@@H](O)[C@H](O)[C@H]2O)cc1 [TG-047]	2.34	2.84	2.6	3.45	2.12	1.93	
CC(C)(C)CCOc1ccc(CCCCO[C@@H]2O[C@H](CO)[C@@H](O)[C@H](O)[C@H]2O)cc1 [TG-040]	1.46	0.81	0.22	0.28	2.09	3.97	
COC(=O)[C@H](c1ccccc1Cl)N1CCc2sccc2C1 [Clopidogrel bisulfate, reference compound]							ED50 ([2]; Rattus norvegicus, ip, 72 h, intraperitoneal injection, TTC staining after 3 days, read-out: ED50 for infarction inhibition rate (%)): 28.1 mg/kg
COc1ccc(CNCCO[C@@H]2O[C@H](CO)[C@@H](O)[C@H](O)[C@H]2O)cc1 [TG-036]							fold induction at 1 µM ([1]; RAW264.7, 3 h): 1.19; fold induction at 100 µM ([1]; RAW264.7, 3 h): 1.39; fold induction at 500 µM ([1]; RAW264.7, 3 h): 0.32; fold induction at 1000 µM ([1]; RAW264.7, 3 h): 1.09; fold induction at 2000 µM ([1]; RAW264.7, 3 h): 0.43; fold induction at 3000 µM ([1]; RAW264.7, 3 h): 1.75
